Legend:
Malat-1 [1] = test: Malat-1 RNA by RT-qPCR in MHT cells; autophagy modulator, then oligonucleotide by free uptake; assay type: cell-based, mouse; details: for effect of autophagy modulator on modified oligonucleotide activity (in words): MOE gapmer 399462, relative to DMSO; for effect of autophagy modulator on antisense activity (in words): cEt gapmer 556089, relative to DMSO
Experimental: MHT cells (a mouse hepatocellular carcinoma cell line) were plated at 20,000 cells/well and treated with DMSO (control) or an autophagy modulator for 24 hours at the concentrations indicated in Table 2 below. 3-MA, BafA1, AZD8055, and leupeptin are […]. […] Fourteen hours after the addition of autophagy modulators, 10 μM of a modified control oligonucleotide or of a modified antisense oligonucleotide was added by free uptake for ten hours. The modified oligonucleotides, shown in Table 1 below, are 3-10-3 cEt gapmers in which every internucleoside linkage is a phosphorothioate internucleoside linkage. The three 5′-terminal nucleosides and the three 3′-terminal nucleosides of each oligonucleotide each comprise a cEt modified sugar moiety. The remaining ten nucleosides of each oligonucleotide each comprise an unmodified, 2′-deoxy sugar moiety.
Using the primer probe sets described in Table 3 below, RT-qPCR analysis was performed to detect RNA levels of Malat-1, shown in Table 4 and markers of autophagy, (Rab7, LAMP2, Atg7, ULK1, ULK2, Atg5, Beclin, and c-Jun), shown in Table 5. Results were normalized to cyclophilin A levels. To control for global effects of autophagy modulators on gene expression, Malat-1 RNA levels after treatment with an antisense oligonucleotide and an autophagy modulator were normalized to Malat-1 RNA levels in cells treated with control Compound No. 549148 and the same autophagy modulator.
MHT cells were plated at 20,000 cells/well and treated with DMSO (control) or an autophagy modulator for 24 hours, at the concentrations indicated Table 7 below. Fourteen hours after the addition of autophagy modulator, control or antisense oligonucleotides (see Table 6) were added at 1 μM, 2.5 μM, 5 μM, or 10 μM by free uptake for ten hours. The modified oligonucleotides, shown in Table 6 below, are 5-10-5 MOE gapmers in which every internucleoside linkage is a phosphorothioate internucleoside linkage. The five 5′-terminal nucleosides and the five 3′-terminal nucleosides of each oligonucleotide each comprise a 2′-MOE modified sugar moiety. The remaining ten nucleosides of each oligonucleotide each comprise an unmodified, 2′-deoxy sugar moiety.
RT-qPCR analysis was performed to detect RNA levels of Malat-1 using primer probe set 15877 (described in Example 1). In order to control for global effects of autophagy modulators on gene expression, Malat-1 RNA levels after treatment with an antisense oligonucleotide and an autophagy modulator were normalized to Malat-1 RNA levels in cells treated with control Compound No. 141923 and the same autophagy modulator. Each table below represents results from an individual assay.

Malat-1 [2] = test: Malat-1 RNA by RT-qPCR in A431 cells; assay type: cell-based, human; details: MOE gapmer
Experimental: RT-qPCR analysis was performed to detect RNA levels of Malat-1 using primer probe set RTS2736. Results were normalized to cyclophilin A levels (measured using HTS3936). […] Each table below represents results from an individual assay.

p62 = test: Liver protein analysis in mice: p62; assay type: in vivo; details: Table 34; mouse liver 24 h; oligonucleotide 5 mg/kg (or PBS); Treatment Rapamycin 5 mg/kg at 0, 12, 22 h
Experimental: (§1) The following experiments were performed to determine if the effects of autophagy modulators on antisense activity in vitro can be observed in vivo. Groups of 3-4 8-week-old male C57bl/6J mice were administered 5 mg/kg control oligonucleotide 141923, or 5 mg/kg antisense oligonucleotide 399462. Following administration of modified oligonucleotide, mice were administered 1% DMSO or 5 mg/kg AZD8055 in 1% DMSO at three time points over 24 hours: at the time of administration of the modified oligonucleotide, and 12 and 22 hours after administration of the modified oligonucleotide. A group of control mice was administered PBS at time 0 and 1% DMSO at 0, 12, and 22 hours. Mice were sacrificed at 24 hours after administration of the modified oligonucleotide and tissues were collected for analysis.
(§2) Autophagy activation was confirmed in livers by determining suppression of mTOR kinase activity (pS6/S6 levels), determining an increased LC3B II/I ratio (a marker for the formation of autophagosomes), and determining p62 degradation (related to the clearance of autophagosomes). Protein analysis was carried out on liver tissue using standard procedures. All proteins were normalized to α-tubulin. Phospho-S6 Ribosomal Protein (Ser240/244) (2215S), and S6 Ribosomal Protein (2217S) antibodies were obtained from Cell Signaling Technology. The antibody against LC3B (ab48394) was purchased from Abcam. […]

Atg7 = Atg7 mRNA in mouse liver by RT-qPCR; assay type: in vivo; details: Table 35; mouse liver 24 h; oligonucleotide 5 mg/kg; rapamycin 5 mg/kg at 0, 12, 22 h
Experimental: The following experiments were performed to determine if the effects of autophagy modulators on antisense activity in vitro can be observed in vivo. […] Mice were sacrificed at 24 hours after administration of the modified oligonucleotide and tissues were collected for analysis. […] Atg7 mRNA levels are a marker of the induction of autophagy in treated mouse livers. Results are presented as percent change of RNA, relative to PBS control treated with DMSO, normalized to mouse cyclophilin A measured using mouse primer probe set Cyclophilin-A (forward sequence [NT], designated herein as SEQ ID NO: 38; reverse sequence [NT], designated herein as SEQ ID NO: 39; probe sequence [NT], designated herein as SEQ ID NO: 40). […] Following administration of modified oligonucleotide, groups of mice were either allowed free access to chow (control) or fasted overnight (16 hr fast). Mice were sacrificed at 16 hours after administration of the modified oligonucleotide and tissues were collected for analysis. […] Atg7 mRNA levels are a marker of the induction of autophagy in treated mouse livers. Results are presented in Table 33 relative to mice treated with PBS and allowed normal access to chow. […] Mice were sacrificed at 24 hours after administration of the modified oligonucleotide and tissues were collected for analysis. […]

Malat-1 [3] = test: MALAT-1 RNA in mouse liver by RT-qPCR; assay type: in vivo; details: Table 35; mouse liver 24 h; oligonucleotide 5 mg/kg; rapamycin 5 mg/kg at 0, 12, 22 h
Experimental: The following experiments were performed to determine if the effects of autophagy modulators on antisense activity in vitro can be observed in vivo. […] Mice were sacrificed at 24 hours after administration of the modified oligonucleotide and tissues were collected for analysis. […] Atg7 mRNA levels are a marker of the induction of autophagy in treated mouse livers. Results are presented as percent change of RNA, relative to PBS control treated with DMSO, normalized to mouse cyclophilin A measured using mouse primer probe set Cyclophilin-A (forward sequence [NT], designated herein as SEQ ID NO: 38; reverse sequence [NT], designated herein as SEQ ID NO: 39; probe sequence [NT], designated herein as SEQ ID NO: 40). […] Following administration of modified oligonucleotide, groups of mice were either allowed free access to chow (control) or fasted overnight (16 hr fast). Mice were sacrificed at 16 hours after administration of the modified oligonucleotide and tissues were collected for analysis. […] Atg7 mRNA levels are a marker of the induction of autophagy in treated mouse livers. Results are presented in Table 33 relative to mice treated with PBS and allowed normal access to chow. […] Mice were sacrificed at 24 hours after administration of the modified oligonucleotide and tissues were collected for analysis. […] Atg7 mRNA levels are a marker of the induction of autophagy in treated mouse livers. […] RNA was extracted from liver tissue for real-time RTPCR analysis of MALAT1 RNA expression. Primer probe set 15877 was used to measure mouse MALAT1 RNA levels. Results are presented as percent change of RNA, relative to PBS control, normalized to mouse cyclophilin A measured using mouse primer probe set Cyclophilin-A. […] RNA was extracted from liver tissue for real-time RTPCR analysis of MALAT1 RNA expression. Primer probe set 15877 was used to measure mouse MALAT1 RNA levels. Results are presented as percent change of RNA, relative to PBS control, normalized to mouse cyclophilin A measured using mouse primer probe set Cyclophilin-A.

[4] = test system: mTOR kinase activity (pS6/S6 levels); test: Liver protein analysis in mice: pS6/S6; assay type: in vivo; details: Table 34; mouse liver 24 h; oligonucleotide 5 mg/kg (or PBS); Treatment Rapamycin 5 mg/kg at 0, 12, 22 h
Experimental: The following experiments were performed to determine if the effects of autophagy modulators on antisense activity in vitro can be observed in vivo. […] Following administration of modified oligonucleotide, mice were administered 1% DMSO or 5 mg/kg AZD8055 in 1% DMSO at three time points over 24 hours: at the time of administration of the modified oligonucleotide, and 12 and 22 hours after administration of the modified oligonucleotide. A group of control mice was administered PBS at time 0 and 1% DMSO at 0, 12, and 22 hours. Mice were sacrificed at 24 hours after administration of the modified oligonucleotide and tissues were collected for analysis.
Protein analysis was carried out on liver tissue using standard procedures. All proteins were normalized to α-tubulin. […] The antibody against LC3B (ab48394) was purchased from Abcam. […] Antibody against P62 (GP62-C) was purchased from Progen.
A group of control mice was administered PBS at time 0 and 1% DMSO at 0, 12, and 22 hours. Mice were sacrificed at 24 hours after administration of the modified oligonucleotide and tissues were collected for analysis. […]

LC3B = test: Liver protein analysis in mice: LC3B II/I ratio; assay type: in vivo; details: Table 34; mouse liver 24 h; oligonucleotide 5 mg/kg (or PBS); Treatment Rapamycin 5 mg/kg at 0, 12, 22 h
Experimental: as §1, §2

With `Cn1cnc(N)c2ncnc1-2` [3-MA, 3-methyladenine] the “effect of autophagy modulator on modified oligonucleotide activity (in words)” value (Malat-1 [1]) was “significantly enhanced modified oligonucleotide activity” and the “effect of autophagy modulator on antisense activity (in words)” value (shortened to “effect … on antisense activity (in words)”) (Malat-1 [1]) was “significantly enhanced antisense activity”.

`CO/C1=C\C(C)=C\[C@@H](C)[C@@H](O)[C@@H](C)C/C(C)=C/C=C/[C@H](OC)[C@@H]([C@@H](C)[C@@H](O)[C@H](C)[C@@]2(O)C[C@@H](O)[C@H](C)[C@@H](C(C)C)O2)OC1=O` [BafA1, Bafilomycin A1] was tested, and the “effect of autophagy modulator on modified oligonucleotide activity (in words)” value (Malat-1 [2]) was “significantly enhanced modified oligonucleotide activity”, the “effect of autophagy modulator on modified oligonucleotide activity (in words)” value (Malat-1 [1]) was “significantly enhanced modified oligonucleotide activity” and the “effect … on antisense activity (in words)” value (Malat-1 [1]) was “significantly enhanced antisense activity”.

`CCOC(=O)[C@H]1O[C@@H]1C(=O)N[C@@H](CC(C)C)C(=O)NCCC(C)C` [E64D] was tested, and the “effect of autophagy modulator on modified oligonucleotide activity (in words)” value (Malat-1 [1]) was “reduced activity of modified oligonucleotide”.

In the case of `CC(=O)N[C@@H](CC(C)C)C(=O)N[C@@H](CC(C)C)C(=O)N[C@H](C=O)CCCNC(=N)N` [Leupeptin], the “effect of autophagy modulator on modified oligonucleotide activity (in words)” value (Malat-1 [2]) is reported as “significantly enhanced modified oligonucleotide activity”, the “effect of autophagy modulator on modified oligonucleotide activity (in words)” value (Malat-1 [1]) is reported as “significantly enhanced modified oligonucleotide activity” and the “effect … on antisense activity (in words)” value (Malat-1 [1]) is reported as “significantly enhanced antisense activity”.

For `CO[C@H]1C[C@@H]2CC[C@@H](C)[C@@](O)(O2)C(=O)C(=O)N2CCCC[C@H]2C(=O)O[C@H]([C@H](C)C[C@@H]2CC[C@@H](O)[C@H](OC)C2)CC(=O)[C@H](C)/C=C(\C)[C@@H](O)[C@@H](OC)C(=O)[C@H](C)C[C@H](C)/C=C/C=C/C=C/1C` [Rapamycin], the P62 (p62) was 0.8, the “Atg7 level (% relative to PBS/DMSO mice)” value (Atg7) was 111% and the “Malat-1 level (% relative to PBS/DMSO mice)” value (Malat-1 [3]) was 89%. For the same compound, the pS6/S6 ratio [4] was 0.7 and the “LC3B II/I ratio” value (LC3B) was 1.3.

`CC(C)C(=O)CN1c2nc(N3CCOC[C@H]3C)cc(=O)n2CC[C@H]1C(F)(F)F` [VPS34-IN2] was tested, and the “effect of autophagy modulator on modified oligonucleotide activity (in words)” value (Malat-1 [2]) was “significantly enhanced modified oligonucleotide activity” and the “effect of autophagy modulator on modified oligonucleotide activity (in words)” value (Malat-1 [1]) was “significantly enhanced modified oligonucleotide activity”.

For `CC[C@]1(O)C[C@@H]2CN(CCc3c([nH]c4ccccc34)[C@@](C(=O)OC)(c3cc4c(cc3OC)N(C)[C@H]3[C@@](O)(C(=O)OC)[C@H](OC(C)=O)[C@]5(CC)C=CCN6CC[C@]43[C@@H]65)C2)C1` [Vinblastine], the “effect of autophagy modulator on modified oligonucleotide activity (in words)” value (Malat-1 [1]) was “significantly enhanced modified oligonucleotide activity”.
